Results taken from patent publication US20260240835A1 (priority 2022, published 2026).
Counter-ions that a name gives are not always drawn. Like-named read-outs stand apart in the source and are kept apart here.

Tests used:
[1] = Pharmacokinetics in moderate renal impairment versus matched controls
Source text: (§1) References used are the matched healthy subjects for renal and hepatic impairment studies, and extensive or ultra-extensive CYP2D6 metabolizers respectively.

[2] = Pharmacokinetics in moderate hepatic impairment versus matched healthy subjects; assay type: in vivo, human
Source text: Data are GMRs and 90% Cls. References used are the matched healthy subjects for renal and hepatic impairment studies, and extensive or ultra-extensive CYP2D6 metabolizers respectively.

[3] = Solubility of the powder in water
[4] = Pharmacokinetics in CYP2D6 poor metabolizers versus extensive metabolizers; conditions: 12 poor metabolizers treated with the subject combination in efficacy trials
Source text: Approximately 7% to 10% of Caucasians and 3% to 8% of African Americans lack the capacity to metabolize CYP2D6 substrates and are classified as poor metabolizers.
as §1

[5] = Effect of food on pharmacokinetics of the subject combination
[6] = Steady state pharmacokinetics after administration of the subject combination; conditions: for dose proportionality of changes in AUC and Cmax at steady state: co-administered with bupropion; for AUC0-12 relative to that of bupropion / Cmax relative to that of bupropion / time post-dose at which Cmax of the metabolite occurs: after administration of the subject combination; for apparent elimination half-life of metabolite: subject combination
[7] = Co-administration of paroxetine and the subject combination (drug interaction)
[8] = test system: patients with treatment-resistant depression or MDD with acute suicidal ideation or behavior; conditions: cited from earlier work
[9] = human, in vivo
[10] = 7 subjects with moderate (GFR 30-60 mL/min) renal impairment vs 6 matched controls
[11] = given as the subject combination
[12] = 20 mg paroxetine, tablet of Example 4 twice daily, vs tablet without paroxetine

## CC(NC(C)(C)C)C(=O)c1cccc(Cl)c1 (racemic) [bupropion]
[1]; human, in vivo
  increase in exposure versus matched controls with normal renal function: approximately 2 fold
  reduction in clearance versus matched controls with normal renal function: 50%
[2]; human, in vivo
  AUC0-12 and Cmax compared with healthy patients: not significantly different

## COc1ccc2c(c1)[C@]13CCCC[C@@H]1[C@H](C2)N(C)CC3 [Dextromethorphan hydrobromide, morphinan, 3-methoxy-17-methyl-, (9α, 13α, 14α), hydrobromide monohydrate]
[3]
  solubility in water: sparingly soluble

## COc1ccc2c(c1)[C@]13CCCC[C@@H]1[C@H](C2)N(C)CC3 [dextromethorphan]
[1]; [10]
  increase in exposure versus matched controls with normal renal function: approximately 2 fold
  reduction in clearance versus matched controls with normal renal function: 50%
[2]; patients having moderate hepatic impairment (Group 2)
  AUC0-12 and Cmax compared with healthy patients: not significantly different
[4]
  steady state plasma concentrations compared with non-poor metabolizers: generally higher
[5]
  change in Cmax when administered with food: unchanged
  decrease in AUC0-12 when administered with food: 14%
[6]; varying doses of bupropion (75 to 150 mg)
  dose proportionality of changes in AUC and Cmax at steady state: less than dose-proportional
[6]; varying doses of dextromethorphan (30 to 60 mg)
  dose proportionality of changes in AUC and Cmax at steady state: greater than dose-proportional
[6]; following 8 days of administration of the subject combination in extensive metabolizers
  increase in mean elimination half-life as compared to dextromethorphan given without bupropion: approximately 3 fold
[6]; [11]
  accumulation ratio at steady state based on AUC0-12: about 32
  accumulation ratio at steady state based on Cmax: about 20
[7]; [12]
  increase in AUC0-12 with concomitant paroxetine: 2.69 fold
  increase in Cmax with concomitant paroxetine: 2.38 fold
[7]; 29 healthy volunteers, paroxetine co-administered with the subject combination
  change in overall exposure caused by paroxetine: 2.5 fold

## CC(NC(C)(C)C)C(O)c1cccc(Cl)c1 (centres unmarked) [erythrohydroxybupropion]
[6]
  AUC0-12 relative to that of bupropion: about 1.2 times
  Cmax relative to that of bupropion: approximately equal to
  time post-dose at which Cmax of the metabolite occurs: approximately 4 hours
  apparent elimination half-life of metabolite: ~44 h

## CN[C@]1(c2ccccc2Cl)CCCCC1=O [esketamine]
[8]; adults with MDD with acute suicidal ideation or behavior, plus oral antidepressant
  incidence of sedation (MOAA/S score <5) compared to placebo plus oral antidepressant: higher incidence of sedation
[8]; fixed-dose study, TRD patients <65 years, 56 mg + oral AD
  Incidence of Sedation (MOAA/S score <5): 50%
[8]; fixed-dose study, TRD patients <65 years, 84 mg + oral AD
  Incidence of Sedation (MOAA/S score <5): 61%
[8]; flexible-dose study, TRD patients ≥65 years, 28 to 84 mg + oral AD
  Incidence of Sedation (MOAA/S score <5): 49%

## C[C@H]1NC(C)(C)CO[C@]1(O)c1cccc(Cl)c1 [hydroxybupropion]
[6]
  AUC0-12 relative to that of bupropion: about 19 times
  Cmax relative to that of bupropion: approximately 14 times
  time post-dose at which Cmax of the metabolite occurs: about 3 hours
  apparent elimination half-life of metabolite: approximately 35 hours

## Fc1ccc([C@@H]2CCNC[C@H]2COc2ccc3c(c2)OCO3)cc1 [paroxetine]
[9]
  increase in overall exposure when co-administered with the subject combination: 1.2 fold

## C[C@H](NC(C)(C)C)[C@@H](O)c1cccc(Cl)c1 [threohydroxybupropion]
[6]
  AUC0-12 relative to that of bupropion: about 7 times
  Cmax relative to that of bupropion: about 5 times
  time post-dose at which Cmax of the metabolite occurs: approximately 4 hours
  apparent elimination half-life of metabolite: ~33 h
